Experimental data reported in patent publication US6353020B1, “Fungicidal compositions containing N-acetonylbenzamides” (Dow AgroSciences LLC, priority 1998, dated 2002).
Read-outs that look alike come from different tables or passages of the source.

Tests used:
[1] = system: Phytophthora capsici (ATCC 15399); assay: In vitro test to control Phytophthora capsici (colony growth inhibition on potato dextrose agar); type: cell-based
[2] = system: Phytophthora capsici (ATCC 15399); assay: as above; type: cell-based; remark: listed apart in the source
Method: (§1) Dilution series of Compounds A and B were prepared in dimethylsulfoxide (DMSO), and aliquots added to 25 ml of molten potato dextrose agar at 50° C. to give the appropriate concentrations shown in the table below. Immediately after adding the compound(s), the molten agar was poured into 9-cm diameter petri plates and allowed to harden. The final concentration of DMSO in all plates was 0.5%. Control plates contained DMSO but neither compound. Plates were inoculated in the center with 1 μl of a suspension of Phytophthora capsici (ATCC 15399, obtainable from the American Type Culture Collection, Rockville, Md., U.S.A) zoospores containing 5×10^5 zoospores per milliliter. Three replicate plates were used for each treatment. Fungal colony diameters were measured after growth for 7 days at 25° C., and two measurements were taken from each plate. Inhibition of growth was calculated by comparing growth in the treatments with compound A and/or B with growth in the controls. Degree of inhibition (observed) is expressed as a percentage in Table 1a. The predicted % inhibition in treatments containing both A and B was calculated using the Colby Formula.
as §1, with “B′” for “B”, “(Observed)” for “(observed)”, “1b.” for “1a.”, “Formula, which is known to those skilled in the art (R. S. Colby, Weeds 15, 20-22 (1967)).” for “Formula.”

[3] = Phytophthora capsici, ATCC15399, read-out: % Inhibition (Observed)

Compound: COCC(=O)N(c1c(C)cccc1C)C(C)C(=O)OC (racemic) [Compound B′, racemic mixture of Metalaxyl, reference compound]
- % Inhibition (Observed) ([1]; Table 1b, Compound B′ 0.6 ppm alone, 7 days at 25° C.): 35.1%
- % Inhibition (Observed) ([1]; Table 1b, Compound B′ 0.9 ppm alone, 7 days at 25° C.): 48.0%

Compound: COCC(=O)N(c1c(C)cccc1C)[C@H](C)C(=O)OC (single isomer, unassigned) [Compound B, R-Enantiomer of Metalaxyl, reference compound]
- % Inhibition (Observed) ([2]; Table 1a, Compound B 0.25 ppm alone, 7 days at 25° C.): 17.9%
- % Inhibition (Observed) ([2]; Table 1a, Compound B 0.75 ppm alone, 7 days at 25° C.): 57.6%
- % Inhibition (Observed) ([1]; Table 1a, Compound B 0.5 ppm alone, 7 days at 25° C.): 56.0%

Compound: CCC(C)(NC(=O)c1cc(Cl)c(C)c(Cl)c1)C(=O)CCl (stereo not shown) [Compound A, N-[3′-(1′-chloro-3′-methyl-2′-oxopentan)]-3,5-dichloro-4-methylbenzamide]
- % Inhibition (Observed) ([2]; Table 1b, Compound A 0.04 ppm alone): 31.0%
- % Inhibition (Observed) ([2]; Table 1b, Compound A 0.08 ppm alone): 47.2%
- % Inhibition (Observed) ([2]; Table 1b, Compound A 0.16 ppm alone): 55.2%
- % Inhibition (Observed) ([1]; Table 1a, Compound A 0.1 ppm alone, 7 days at 25° C.): 29.0%
- % Inhibition (Observed) ([1]; Table 1b, Compound A 0.12 ppm alone): 52.3%
- % Inhibition (Observed) ([1]; Table 2, Compound A 0.1 ppm alone): 30.3%
- % Inhibition (Observed) ([1]; Table 2, Compound A 0.2 ppm alone): 39.3%
- % Inhibition (Observed) ([1]; Table 2, Compound A 0.3 ppm alone): 51.8%
- % Inhibition (Observed) ([1]; Table 3, Compound A 0.1 ppm alone): 29.0%
- % Inhibition (Observed) ([1]; Table 3, Compound A 0.2 ppm alone): 38.1%
- % Inhibition (Observed) ([1]; Table 3, Compound A 0.3 ppm alone): 47.4%
- % Inhibition (Observed) ([1]; Table 4, Compound A 0.1 ppm alone): 34.7%
- % Inhibition (Observed) ([1]; Table 4, Compound A 0.2 ppm alone): 44.5%
- % Inhibition (Observed) ([1]; Table 4, Compound A 0.3 ppm alone): 49.4%

Compound: COCC(=O)N(c1c(C)cccc1C)N1CCOC1=O [Compound C, Oxadixyl, reference compound]
- inhibition at 6.25 ppm [1, 3]: 30.3%
- inhibition at 12.5 ppm [1, 3]: 41.3%
- inhibition at 25 ppm [1, 3]: 50.8%

Compound: Cc1cccc(C)c1N(C(=O)CCl)C1CCOC1=O (stereo not shown) [Compound D, Ofurace, reference compound]
- inhibition at 12.5 ppm ([1]; Phytophthora capsici, ATCC15399, Table 3, Compound D 12.5 ppm alone, read-out: % Inhibition (Observed)): 52.1%
- inhibition at 25 ppm ([1]; Phytophthora capsici, ATCC15399, Table 3, Compound D 25 ppm alone, read-out: % Inhibition (Observed)): 56%

Compound: COC(=O)C(C)N(C(=O)Cc1ccccc1)c1c(C)cccc1C (stereo not shown) [Compound E, Benalaxyl, reference compound]
- inhibition at 20 ppm ([1]; Phytophthora capsici, ATCC15399, Table 4, Compound E 20 ppm alone, read-out: % Inhibition (Observed)): 46.6%
